According to patent US12421228B2 (Mirati Therapeutics, Inc., priority 2019, dated 2025):

Columns and labels:
[1] = tested on: PRC2-mediated histone H3 methylation in Pfeiffer cells (EZH2 A677G); test: Tri-Methyl Histone H3 (Lys 27) sandwich ELISA in Pfeiffer cells; type: cell-based; settings: Homo sapiens, 96 hours incubation, H3K27me3 ELISA, read-out: IC50 (nM), Inhibition of EZH2-mediated Histone H3 Trimethylation
In short: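 Pfeiffer DLBCL cells (EZH2 A677G) exposed to 3-fold serial compound dilutions for 96 h at 37 °C. Acid-extracted (0.4 M HCl), neutralized histones then assayed by sandwich ELISA for H3K27me3 with HRP/TMB readout at 450 nm; potency reported in bins (A ≤100 nM, B >100–≤500 nM, C >500 nM).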

[2] = biological target: purified human, His-tagged PRC2 complex (Homo sapiens (Human), UniProt O75530); test: Hot Spot HMT assay, inhibition of PRC2 enzymatic activity; type: biochemical; settings: 10 nM PRC2 complex, 0.05 mg/ml core histone H3, 1 μM 3H-SAM, 1 hr at 30° C.; read-out: IC50, Inhibition of PRC2-mediated Enzymatic Activity
Chain of purified human, His-tagged PRC2 complex (Q15910 whole entry): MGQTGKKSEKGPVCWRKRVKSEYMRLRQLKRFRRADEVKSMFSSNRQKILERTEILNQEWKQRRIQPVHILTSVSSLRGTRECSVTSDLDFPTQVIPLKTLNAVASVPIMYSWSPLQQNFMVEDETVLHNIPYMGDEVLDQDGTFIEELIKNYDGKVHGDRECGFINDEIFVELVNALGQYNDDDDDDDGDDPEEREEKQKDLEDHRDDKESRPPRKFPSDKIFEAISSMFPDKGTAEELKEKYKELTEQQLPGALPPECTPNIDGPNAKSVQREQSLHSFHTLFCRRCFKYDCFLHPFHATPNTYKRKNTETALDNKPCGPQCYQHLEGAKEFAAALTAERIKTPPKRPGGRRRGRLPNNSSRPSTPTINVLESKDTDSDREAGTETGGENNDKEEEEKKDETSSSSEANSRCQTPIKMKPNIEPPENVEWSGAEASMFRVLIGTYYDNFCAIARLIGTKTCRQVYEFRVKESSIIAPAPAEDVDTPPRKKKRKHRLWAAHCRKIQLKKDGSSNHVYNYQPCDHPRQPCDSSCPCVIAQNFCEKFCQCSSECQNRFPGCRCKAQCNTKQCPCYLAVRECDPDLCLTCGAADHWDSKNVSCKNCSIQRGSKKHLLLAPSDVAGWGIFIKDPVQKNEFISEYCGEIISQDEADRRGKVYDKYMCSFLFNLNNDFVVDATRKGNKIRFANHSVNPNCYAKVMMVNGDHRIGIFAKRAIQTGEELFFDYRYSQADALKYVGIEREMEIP
Chain of purified human, His-tagged PRC2 complex (O75530 whole entry): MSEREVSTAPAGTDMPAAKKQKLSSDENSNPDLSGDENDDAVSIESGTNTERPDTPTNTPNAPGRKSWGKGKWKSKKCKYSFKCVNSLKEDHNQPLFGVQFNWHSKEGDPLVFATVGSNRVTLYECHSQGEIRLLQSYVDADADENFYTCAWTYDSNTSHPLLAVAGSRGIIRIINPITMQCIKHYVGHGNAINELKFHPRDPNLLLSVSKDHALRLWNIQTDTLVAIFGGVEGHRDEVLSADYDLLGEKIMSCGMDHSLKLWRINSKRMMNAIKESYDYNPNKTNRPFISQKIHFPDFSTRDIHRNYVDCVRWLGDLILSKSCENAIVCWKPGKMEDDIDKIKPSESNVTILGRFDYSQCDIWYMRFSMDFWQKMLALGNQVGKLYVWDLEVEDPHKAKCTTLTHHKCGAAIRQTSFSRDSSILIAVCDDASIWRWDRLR
Chain of purified human, His-tagged PRC2 complex (Q15022 whole entry partner): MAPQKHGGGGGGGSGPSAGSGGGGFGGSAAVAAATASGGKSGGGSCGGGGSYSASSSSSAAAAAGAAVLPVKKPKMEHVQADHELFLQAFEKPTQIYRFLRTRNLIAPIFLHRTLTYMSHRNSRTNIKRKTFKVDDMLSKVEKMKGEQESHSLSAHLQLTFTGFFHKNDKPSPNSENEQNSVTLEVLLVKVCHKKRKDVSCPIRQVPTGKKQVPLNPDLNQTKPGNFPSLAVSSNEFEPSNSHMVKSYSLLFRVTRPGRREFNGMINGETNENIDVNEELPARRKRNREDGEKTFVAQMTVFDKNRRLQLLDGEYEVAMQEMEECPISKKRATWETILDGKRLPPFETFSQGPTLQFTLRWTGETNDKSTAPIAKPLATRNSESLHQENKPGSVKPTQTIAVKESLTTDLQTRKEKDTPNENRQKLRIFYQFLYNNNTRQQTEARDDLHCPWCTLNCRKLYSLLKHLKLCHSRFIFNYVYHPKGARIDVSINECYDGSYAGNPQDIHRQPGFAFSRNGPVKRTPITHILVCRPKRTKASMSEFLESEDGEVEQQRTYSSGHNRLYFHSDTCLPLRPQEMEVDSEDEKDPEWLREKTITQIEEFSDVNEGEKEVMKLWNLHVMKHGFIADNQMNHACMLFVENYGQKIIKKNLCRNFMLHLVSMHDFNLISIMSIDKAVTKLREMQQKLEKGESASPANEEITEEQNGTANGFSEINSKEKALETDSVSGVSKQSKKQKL
Chain of purified human, His-tagged PRC2 complex (Q6ZN18 whole entry partner): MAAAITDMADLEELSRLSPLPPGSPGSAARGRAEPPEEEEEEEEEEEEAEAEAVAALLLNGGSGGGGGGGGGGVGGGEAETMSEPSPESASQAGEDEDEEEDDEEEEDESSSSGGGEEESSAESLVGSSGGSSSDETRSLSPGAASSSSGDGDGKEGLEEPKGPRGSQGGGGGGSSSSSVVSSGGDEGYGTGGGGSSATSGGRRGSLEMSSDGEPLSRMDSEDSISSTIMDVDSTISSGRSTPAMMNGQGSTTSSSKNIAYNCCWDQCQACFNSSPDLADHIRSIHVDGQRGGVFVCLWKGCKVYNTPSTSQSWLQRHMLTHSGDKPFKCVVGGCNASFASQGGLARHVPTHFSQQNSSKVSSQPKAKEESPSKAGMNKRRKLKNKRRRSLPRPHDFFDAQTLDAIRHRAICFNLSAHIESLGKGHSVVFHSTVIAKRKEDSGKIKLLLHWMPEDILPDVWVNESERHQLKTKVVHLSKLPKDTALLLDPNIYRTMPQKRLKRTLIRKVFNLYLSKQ
Chain of purified human, His-tagged PRC2 complex (Q09028 whole entry partner): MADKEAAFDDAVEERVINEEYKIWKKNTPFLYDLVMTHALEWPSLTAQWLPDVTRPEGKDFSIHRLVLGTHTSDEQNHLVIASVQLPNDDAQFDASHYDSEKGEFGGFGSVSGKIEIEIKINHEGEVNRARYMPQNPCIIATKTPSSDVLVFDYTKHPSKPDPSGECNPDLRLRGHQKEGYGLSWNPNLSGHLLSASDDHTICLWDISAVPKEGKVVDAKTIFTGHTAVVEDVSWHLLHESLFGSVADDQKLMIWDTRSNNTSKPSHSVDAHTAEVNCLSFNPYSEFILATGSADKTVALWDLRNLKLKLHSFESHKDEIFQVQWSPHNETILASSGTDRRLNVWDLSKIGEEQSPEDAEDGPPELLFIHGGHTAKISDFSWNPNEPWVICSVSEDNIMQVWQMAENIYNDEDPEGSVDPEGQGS
In short: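 Ten-point, three-fold dilution series from 1.0 μM. 10 nM PRC2 with 0.05 mg/ml core histone H3 in pH 8 Tris buffer was pre-incubated 20 min at 30 °C, then reacted with 1 μM [3H]-SAM for 1 hr at 30 °C. Tritiated H3 was captured by filter binding and scintillation-counted; IC50 was taken from the dose-response curve.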

[3] = tested on: Karpas 422 cells (EZH2 Y641N); test: Karpas 422 cell viability (Cell Titre Glo); type: cell-based; settings: Homo sapiens, CTG viability, Day 4, Day 7 or Day 11 (time point not given), read-out: IC50 (nM), Inhibiting Proliferation of Cells Expressing an Activating Mutant Form of EZH2
In short: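 Karpas 422 cells (EZH2 Y641N) in RPMI with 20% FBS, 1000 cells/well, exposed to compound from 10 μM in 3-fold dilutions down to 1.5 nM at 37° C. Viability by CellTiter-Glo at Day 4, 7 or 11; Day 11 plates re-fed with fresh medium and compound on Day 7. IC50 per time point.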

Row | IC50 [1] [nM] | IC50 [2] [nM] | IC50 [3] [nM] | Structure (SMILES)
1 | 100 to 500 | > 250 | ≤ 250 | Cc1cc(-c2cnc(NCc3c(F)ccc4c3CCO4)c3ccc(=O)[nH]c23)n(C)n1 [Example 53]
2 | > 500 | > 250 | > 500 | Cc1cc(CN(C)C)ccc1-c1cnc(NCc2c(F)ccc3c2CCO3)c2cnccc12 [Example 30]
3 | > 500 | > 250 | > 500 | COc1ccc2c(NCc3c(F)ccc4c3CCO4)ncc(-c3cc(C)nn3C)c2n1 [Example 52, 8-(1,3-dimethyl-1H-pyrazol-5-yl)-N-((5-fluoro-2,3-dihydrobenzofuran-4-yl)methyl)-2-methoxy-1,6-naphthyridin-5-amine]
4 | 100 to 500 | > 250 | ≤ 250 | CN(C)CCn1nccc1-c1cnc(NCc2c(F)ccc3c2CCO3)c2c[nH]c(=O)cc12 [Example 46, 5-(1-(2-(dimethylamino)ethyl)-1H-pyrazol-5-yl)-8-(((5-fluoro-2,3-dihydrobenzofuran-4-yl)methyl)amino)-2,7-naphthyridin-3(2H)-one]
